# Key:
# [1] = test system: MCF7 (breast); experiment: In vitro cytotoxic activity (MTT) assay, MCF7; type: cell-based; settings: Homo sapiens, exposed 96 hours, read-out: IC50, 50% inhibition of cell proliferation
# Procedure: (§1) Compounds 1-16 were screened for their in vitro cytotoxic activity utilizing a 3-(4,5-dimethyl-thiazol-2-yl)-2,5-diphenyltetrazolium bromide (MTT) assay against selected cancer human cell lines consisting of PC3 (prostate), HCT116 (colon), A375 (melanoma), H1299 (lung), MIAPaCa-2 (pancreas), HL60 (leukemia), MCF7 (breast), MDA-MB-231 (breast) (T. Mosmann, J. Immunol. Meth., 1983, 65, 55-63). The cells were cultured at 37° C. in RMPI1640 medium supplemented with 10% fetal bovine serum, 50 IU/mL penicillin, and 50 μg/mL streptomycin in a 5% CO2 incubator. All cells were sub-cultured 3 times/week by trypsinisation. Viable cells were seeded and allowed to adhere for 12 h before a test drug was added in 96-well plates at an initial density of 1.0×10^5 cells/mL. Tumour cell lines were separately exposed to various concentrations of the tested compounds followed by incubation at a temperature of 37° C. during 96 h inside a medium of fresh RMPI 1640. Cells were subsequently incubated at 37° C. using MTT at 0.5 mg/mL during 4 h. After removal of supernatant, formazan crystals were dissolved in isopropanol and the optical density was measured at 570 nm. CX-4945 was used as a positive control.
# [2] = test system: H1299 (lung); experiment: In vitro cytotoxic activity (MTT) assay, H1299; type: cell-based; settings: Homo sapiens, NCI-H1299, exposed 96 hours, read-out: IC50, 50% inhibition of cell proliferation
# Procedure: as §1
# [3] = test system: HCT116 (colon); experiment: In vitro cytotoxic activity (MTT) assay, HCT116; type: cell-based; settings: Homo sapiens, HCT-116, exposed 96 hours, read-out: IC50, 50% inhibition of cell proliferation
# Procedure: as §1
# [4] = test system: HL60 (leukemia); experiment: In vitro cytotoxic activity (MTT) assay, HL60; type: cell-based; settings: Homo sapiens, HL-60, exposed 96 hours, read-out: IC50, 50% inhibition of cell proliferation
# Procedure: as §1
# [5] = test system: PC3 (prostate); experiment: In vitro cytotoxic activity (MTT) assay, PC3; type: cell-based; settings: Homo sapiens, exposed 96 hours, read-out: IC50, 50% inhibition of cell proliferation
# Procedure: as §1
# [6] = test system: A375 (melanoma); experiment: In vitro cytotoxic activity (MTT) assay, A375; type: cell-based; settings: Homo sapiens, A-375, exposed 96 hours, read-out: IC50, 50% inhibition of cell proliferation
# Procedure: as §1
# [7] = test system: MIAPaCa-2 (pancreas); experiment: In vitro cytotoxic activity (MTT) assay, MIAPaCa-2; type: cell-based; settings: Homo sapiens, MIA PaCa-2, exposed 96 hours, read-out: IC50, 50% inhibition of cell proliferation
# Procedure: as §1
# [8] = test system: MDA-MB-231 (breast); experiment: In vitro cytotoxic activity (MTT) assay, MDA-MB-231; type: cell-based; settings: Homo sapiens, exposed 96 hours, read-out: IC50, 50% inhibition of cell proliferation
# Procedure: as §1
# [9] = target: T1, recombinant human CK2 (RRββ-holoenzyme) (Homo sapiens, UniProt P68400); experiment: CK2 Kinase Assay (33P-ATP, peptide RRRDDDSDDD); type: biochemical; settings: final ATP 15 μM, 10 min at 30° C.; read-out: IC50, protein kinase CK2 activity
# T1 construct: purchased Millipore
# Procedure: CK2 Kinase Assay was conducted using the protocol as described in Pierre F. et al; J. Med. Chem. 2011, 54, 635-654. The tested compounds in aqueous solution were added at a volume of 10 μL to a reaction mixture comprising 10 μL of assay dilution buffer (ADB; 20 mM MOPS, pH 7.2, 25 mM β-glycerol phosphate, 5 mM EGTA, 1 mM sodium orthovanadate, and 1 mM dithiothreitol), 10 μL of substrate peptide (RRRDDDSDDD, dissolved in ADB at a concentration of 1 mM), 10 μL of recombinant human CK2 (RRββ-holoenzyme, 25 ng dissolved in ADB; Millipore). Reactions were initiated by the addition of 10 μL of ATP solution (90% 75 mMMgCl2, 75 μM ATP (final ATP concentration: 15 μM) dissolved in ADB; 10% [γ-33P] ATP (stock 1 mCi/100 μL; 3000 Ci/mmol (Perkin-Elmer) and maintained for 10 min at 30° C. The reactions were quenched with 100 μL of 0.75% phosphoric acid and then transferred to and filtered through a phosphor cellulose filter plate (Millipore). After washing each well five times with 0.75% phosphoric acid, the plate was dried under vacuum for 5 min and, following the addition of 15 μL of scintillation fluid to each well, the residual radioactivity was measured using a Wallac […] counter. The IC50 values were derived from eight concentrations of test inhibitors.
# T1 sequence (P68400 whole entry): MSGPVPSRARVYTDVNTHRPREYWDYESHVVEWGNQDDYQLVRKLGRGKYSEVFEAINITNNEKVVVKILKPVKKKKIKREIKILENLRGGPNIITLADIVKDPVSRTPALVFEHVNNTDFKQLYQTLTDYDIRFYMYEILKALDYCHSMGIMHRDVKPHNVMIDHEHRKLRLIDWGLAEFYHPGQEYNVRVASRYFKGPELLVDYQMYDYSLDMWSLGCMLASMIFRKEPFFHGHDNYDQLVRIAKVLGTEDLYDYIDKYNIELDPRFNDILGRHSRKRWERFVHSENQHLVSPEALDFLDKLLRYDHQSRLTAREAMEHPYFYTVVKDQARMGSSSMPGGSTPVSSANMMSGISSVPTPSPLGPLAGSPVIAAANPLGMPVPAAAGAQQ
# T1 sequence (P67870 whole entry partner): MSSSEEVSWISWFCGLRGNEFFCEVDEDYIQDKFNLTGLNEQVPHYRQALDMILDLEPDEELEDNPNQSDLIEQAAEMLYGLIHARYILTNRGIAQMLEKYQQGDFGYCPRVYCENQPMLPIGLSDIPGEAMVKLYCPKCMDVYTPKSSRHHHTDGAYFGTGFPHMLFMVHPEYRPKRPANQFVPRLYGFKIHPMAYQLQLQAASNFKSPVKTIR
smiles,measurement,setting,value
"O=C(O)c1cc2c([nH]1)c(Nc1cccc(Cl)c1)nc1ccncc12 [Compound 1, 6-((3-chlorophenyl)amino)-7H-pyrrolo[2,3-c][1,6]naphthyridine-8-carboxylic acid]",IC50,[1],3.9 µM
same,IC50,[2],1.1 µM
same,IC50,[3],1.6 µM
same,IC50,[4],2.8 µM
same,IC50,[5],1.8 µM
same,IC50,[6],2.5 µM
same,IC50,[7],1.3 µM
same,IC50,[8],3.2 µM
same,IC50,[9],0.021 µM

# From US11891394B1, “Pyrrolo[2,3-c][1,6]naphthyridine-8-carboxylic acid compounds as CK2 inhibitors” (KING FAISAL UNIVERSITY, priority 2023, dated 2024)
